Measured values reported in US7488756B2, “Use of non-competitive and selective GluR5 antagonists as glutamate receptor modulating compounds” (Neurosearch A/S, priority 2001, dated 2009).

Columns and labels:
GluR5 receptor [1] = target: T1, GluR5 receptor (Homo sapiens, UniProt P39086); experiment: GluR5 binding assay: displacement of 3H-ATPA from membranes of HEK293 cells expressing GluR5
T1 construct: expressed in transfected cells; host or cells: HEK293
Procedure: The amount of radioactivity on the filters is determined by conventional liquid scintillation counting. Specific binding is total binding minus non-specific binding.

GluR5 receptor [2] = target: T1, GluR5 receptor; settings: Clarke et al., Nature 1997 389 599-603; read-out: Kd of binding to the GluR5 receptor; cited from earlier work
GluR6 receptors = target: T2, GluR6 receptors (Homo sapiens, UniProt Q13002); experiment: Functional GluR6 assay: inhibition of domoate-induced increase in intracellular free calcium (FLIPR, Fluo-4); format: cell-based; settings: for IC50: HEK293 cells stably expressing un-edited GluR6, inhibition of 2 μM domoate-induced Cai elevation
T2 construct: expressed in transfected cells; host or cells: HEK293
T2 sequence (Q13002 32-908): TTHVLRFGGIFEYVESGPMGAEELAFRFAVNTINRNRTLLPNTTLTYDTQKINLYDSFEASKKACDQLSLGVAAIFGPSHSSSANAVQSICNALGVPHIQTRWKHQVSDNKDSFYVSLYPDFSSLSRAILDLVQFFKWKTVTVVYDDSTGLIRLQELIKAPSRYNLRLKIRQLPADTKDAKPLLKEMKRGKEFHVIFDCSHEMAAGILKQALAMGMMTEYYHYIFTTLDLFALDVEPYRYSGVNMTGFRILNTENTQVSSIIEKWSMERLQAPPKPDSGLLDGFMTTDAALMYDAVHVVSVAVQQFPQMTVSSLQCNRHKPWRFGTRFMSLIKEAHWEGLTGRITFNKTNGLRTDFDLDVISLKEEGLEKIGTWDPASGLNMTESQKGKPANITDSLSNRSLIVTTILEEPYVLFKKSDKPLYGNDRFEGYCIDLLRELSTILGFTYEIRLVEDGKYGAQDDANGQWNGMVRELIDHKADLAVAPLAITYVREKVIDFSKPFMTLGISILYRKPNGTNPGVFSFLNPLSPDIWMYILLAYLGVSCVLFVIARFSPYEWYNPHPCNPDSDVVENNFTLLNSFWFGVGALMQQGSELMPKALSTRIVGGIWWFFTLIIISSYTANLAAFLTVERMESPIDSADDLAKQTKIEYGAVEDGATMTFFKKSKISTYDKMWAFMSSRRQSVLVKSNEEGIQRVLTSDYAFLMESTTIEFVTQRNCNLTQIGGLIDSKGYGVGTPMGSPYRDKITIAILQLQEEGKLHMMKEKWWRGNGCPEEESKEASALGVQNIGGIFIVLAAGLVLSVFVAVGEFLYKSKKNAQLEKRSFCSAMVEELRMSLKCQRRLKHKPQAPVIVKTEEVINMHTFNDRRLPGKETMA
Description: (§1) In this example the inhibition of domoate-induced increase in intracellular free calcium concentration (Cai) is used as a measure for glutamate antagonist activity of test substances. Domoate is a close analog of kainite, and a potent glutamate agonist.
(§2) Human embryonic HEK293 cells stably expressing GluR5 receptors and GluR6 receptors, respectively, in their un-edited forms, are used.
(§3) Fluorometric methods for measuring Cai have been developed [see e.g. Tsien et al., J. Cell. Biol. 1982 94 325]. The calcium-chelating fluorochromes (tetracarboxylic acids) are loaded into the cells as acetoxymethyl esters and subsequently released by unspecific intracellular esterase's. The free acids, which are impermeable to the cell membrane, are maintained in the cell for hours. The fluorescence spectrum (either EXmax, EMmax or both) is changed by the binding of calcium. The fluorescence is then directly proportional to the Cai.
(§4) The present method uses the fluorochromes Fluo-3 or Fluo-4 as the calcium-chelator. Fluo-3/Fluo-4 is virtually nonfluorescent without calcium but the calcium-Fluo-3/Fluo-4 complexes show a bright fluorescence (EMmax=526 nm) after excitation around 500 nm (EXmax=505 nm). This fluorescence spectrum is similar to the spectrum of fluorescein. Since excitation and emission is in the visible light region of the spectrum standard equipment without quarts optics may be used.
(§5) The HEK293 cells stably expressing GluR5 or GluR6 expressing are grown in Dulbecco's Modified Eagle Medium (DMEM) containing 10% foetal calf serum, in polystyrene culture flasks (175 cm^2) in a humidified atmosphere of 5% CO2 in air, at 37° C. Confluency of cells should be 80-90% on day of plating. GluR5 or GluR6 cells are rinsed with 10 ml of phosphate buffered saline (PBS), then added 1.5 ml of Trypsin-EDTA and left in the incubator for 5 min. After addition of 10 ml of growth media, cells are resuspended by trituration with a 10 ml pipette 15 times.
The cells are seeded at a density of 0.5-1×10^6 cells/ml (100 μl/well) in black-walled, clear bottom, 96-well plates pre-treated with 0.001% PEI solution (75 μl/well for ≧30 min). Plated cells were allowed to proliferate for 24 h before loading with dye.
Fluo-4-AM (1 mg; Molecular Probes) is added 912 μl DMSO containing 25 mg/150 μl Pluoronic F-127 (Molecular Probes). […]
(§6) After the loading period, the loading media is aspirated and the cells are washed twice with 100 μl Na^+ free Ringer solution (NN: 10 mM HEPES, 140 mM Choline chloride, 5 mM KCl, 1 mM MgCl2, 10 mM CaCl2, pH 7.4) to remove extracellular dye. 100 μl NN is added to each well, and the fluorescence is measured in the FLIPR (Fluorescence Image Plate Reader). […]
Reading intervals: preincubation—10 sec.×7 and 3 sec.×3 antagonist phase—3 sec.×17 and 10 sec.×12 […]

GluR5 receptor [3] = target: T1, GluR5 receptor; experiment: Functional GluR5 assay: inhibition of domoate-induced increase in intracellular free calcium (FLIPR, Fluo-4); format: cell-based; settings: for IC50: HEK293 cells stably expressing un-edited GluR5, inhibition of 2 μM domoate-induced Cai elevation
Description: as §1, §2
In this example the activity of Compound A of the invention (5-carboxyl-2,4-di-benzamido-benzoic acid), obtained according to Ueda & Imai [Ueda M & Imai Y: Synthesis of polyamides by ring-opening polyaddition of bis-3,1-benzoxazin-4-ones with aliphatic diamines; J. Polym. Sci. 1979 17 (4) 1163-1173], is compared to the action of ATPA, a GluR5 receptor agonist, and CNQX, a GluR5 receptor antagonist that inhibits the activity of the agonist.
as §3, §4
as §5, with “times. […]” for “times.”
as §6

[4] = inhibition of specific binding of 3 nM 3H-ATPA, HEK293 GluR5 cell membranes, 60 minutes at 2° C., read-out: GluR5 Binding IC50

T1 sequence (P39086 31-918): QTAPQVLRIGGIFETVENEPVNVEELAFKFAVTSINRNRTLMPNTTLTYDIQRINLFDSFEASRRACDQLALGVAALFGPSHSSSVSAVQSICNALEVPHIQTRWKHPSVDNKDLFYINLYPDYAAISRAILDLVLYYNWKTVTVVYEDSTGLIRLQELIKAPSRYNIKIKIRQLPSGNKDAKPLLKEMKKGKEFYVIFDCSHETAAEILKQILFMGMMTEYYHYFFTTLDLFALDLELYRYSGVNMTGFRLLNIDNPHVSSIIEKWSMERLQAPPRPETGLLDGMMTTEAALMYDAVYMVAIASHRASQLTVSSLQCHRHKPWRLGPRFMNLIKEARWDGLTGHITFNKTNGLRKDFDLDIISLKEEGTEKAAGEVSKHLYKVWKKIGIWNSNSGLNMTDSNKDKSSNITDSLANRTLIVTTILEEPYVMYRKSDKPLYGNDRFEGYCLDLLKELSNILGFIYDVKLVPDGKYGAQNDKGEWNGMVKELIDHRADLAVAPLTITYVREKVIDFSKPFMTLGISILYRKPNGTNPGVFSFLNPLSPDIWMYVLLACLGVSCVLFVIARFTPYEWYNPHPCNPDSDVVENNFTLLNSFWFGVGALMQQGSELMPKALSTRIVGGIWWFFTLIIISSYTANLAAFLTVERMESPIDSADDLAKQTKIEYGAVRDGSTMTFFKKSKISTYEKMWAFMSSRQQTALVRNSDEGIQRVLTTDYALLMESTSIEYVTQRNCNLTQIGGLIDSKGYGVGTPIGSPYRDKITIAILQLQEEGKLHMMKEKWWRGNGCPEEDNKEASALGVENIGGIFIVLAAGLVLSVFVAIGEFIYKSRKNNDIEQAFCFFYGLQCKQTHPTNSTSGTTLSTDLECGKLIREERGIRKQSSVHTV

Structure (SMILES) | IC50 (GluR5 receptor [1]) [nM] | Kd (GluR5 receptor [2]) [nM] | IC50 (GluR6 receptors) [nM] | IC50 (GluR5 receptor [3]) [nM] | IC50 (GluR5 receptor [1]; [4]) [nM] | Selectivity GluR5 over GluR6 (GluR6 receptors; conclusion from functional GluR5 and GluR6 data (Table 1)) | Mode of action at the GluR5 receptor (GluR5 receptor [3]; conclusion from functional activity without binding (Table 1))
CC(C)(C)c1onc(O)c1CC(N)C(=O)O (stereo not drawn) [ATPA, 2-amino-3-(3-hydroxy-5-tert-butylisoxazol-4-yl)propionic acid] | 24 | 4.3 | > 30000 | 700 |  |  | 
N#Cc1cc2[nH]c(=O)c(=O)[nH]c2cc1[N+](=O)[O-] [CNQX] |  |  | 7600 | 3300 | 720 |  | 
O=C(Nc1cc(NC(=O)c2ccccc2)c(C(=O)O)cc1C(=O)O)c1ccccc1 [Compound A, 5-carboxyl-2,4-di-benzamido-benzoic acid] |  |  | > 30000 | 1900 | > 10000 | activity only at the GluR5 receptor, not at the GluR6 receptor | non-competitive antagonist of the GluR5 receptor
